Like-named read-outs stand apart in the source and are kept apart here. No end group written: not given here.
Experiments:
[1] = tested on: L. amazonensis promastigotes; conditions: read-out: IC50 Promastigote with active fetal bovine serum, LIT medium with active (not heat-inactivated) fetal bovine serum, ± standard deviation, SD
Protocol: Therefore, stability studies were carried out with these molecules in the presence of the Leishmania parasite in its promastigote form, with active fetal bovine serum added to the culture medium. […] Assays were performed using the TSHa and (TSHa)2K peptides.
Peptide stability was investigated using anti-promastigote assays (as described by Costa et al. 2023 [58]) with L. amazonensis and LIT culture media with fetal bovine serum.

[2] = target: LmCPB2.8ΔCTE (CPB) (Leishmania mexicana, UniProt P36400); assay: Cysteine protease (CPB) enzyme inhibition assay; assay type: biochemical
LmCPB2.8ΔCTE (CPB), sequence (P36400 126-343, stated change not applied): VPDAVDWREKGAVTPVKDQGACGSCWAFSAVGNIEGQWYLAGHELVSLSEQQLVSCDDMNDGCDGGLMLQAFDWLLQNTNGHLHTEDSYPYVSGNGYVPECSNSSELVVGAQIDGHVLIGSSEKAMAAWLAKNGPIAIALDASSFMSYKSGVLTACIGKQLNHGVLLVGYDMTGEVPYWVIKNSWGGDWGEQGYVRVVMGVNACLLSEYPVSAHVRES
Protocol: The CPB inhibition experiments were performed as described previously by Moreira et al.. The results are expressed as mean ± standard deviation of two independent replicates as the half maximal CPB enzyme inhibitory concentration (IC50-CPB) using Bioestat 5.0 software.

[3] = tested on: L. amazonensis promastigotes; assay: microbe, parasite or virus in culture; assay type: cell-based, Leishmania amazonensis; conditions: read-out: IC50 Promastigote
Protocol: (§1) The L. amazonensis promastigotes (MPRO/BR/1972/M1841-LV-79) were grown in LIT culture medium, while the L. mexicana promastigotes (MNYC/BZ/62/M379) were cultivated in Schneider’s medium (Sigma-Aldrich, St. Louis, MO, USA), supplemented with 10% heat-inactivated fetal bovine serum (FBS; Gibco/Invitrogen, Waltham, MA, USA) at 28 °C until reaching the mid-log phase of growth. Macrophages were sourced from the peritoneal cavity of Swiss mice using the methodology outlined by de Almeida et al.. Anti-promastigote and anti-amastigote assays of L. mexicana and L. amazonensis and their cytotoxic activity were conducted as previously described. IC50 is the concentration capable of killing 50% of the parasites. The drug concentration that inhibited 50% of cell growth was denoted as the 50% cytotoxic concentration (CC50). Cytotoxicity for the host cells and the protozoan species was compared and expressed as the selectivity index (SI), calculated as the ratio of the CC50 for macrophages to the IC50 for the protozoan species.

[4] = POPC–POPS–Erg (16:3:1) LUVs
Protocol: To evaluate the effect of monomeric and dimeric peptides on the lipid membrane and relate it to the mechanism of action, vesicle permeabilization studies were carried out for evaluating the possible mechanisms on membrane. The leakage assays were carried out with carboxyfluorescein (CF) internalized in the mimetic membranes. The vesicles of POPC–Chol (4:1) and POPC–POPS (phosphatidylserine)–ergosterol (16:3:1) were employed. These mimetic membranes were designed considering the compositions of phospholipids and steroids in the host membrane and in the Leishmania membrane, respectively. The constitution of the cell membrane of Leishmania varies according to the morphology of the parasite and its stage of development, but is more negative than the cell membranes of mammals, which allow for cationic AMPs to bind more easily. Our studies were based on the membrane of the promastigote form, which is characterized by the presence of mainly phosphatidylcholine, phosphatidylethanolamine, phosphatidylinositol, phosphatidylserine, and ergosterol, in addition to diglycerides and glycolipids containing mannose and galactose. In the amastigote form of Leishmania, there is a higher concentration of fatty acids and cholesterol, while triglycerides and ergosterol decrease during the transition from promastigotes to amastigotes. In addition, the main phospholipids found are sphingomyelin and phosphatidylserine, with lower proportions of phosphatidylinositol and lysophosphatidylethanolamine.
Large unilamellar vesicles (LUVs) composed of POPC (1-palmitoyl-2-oleoyl-sn-glycero-3-phosphatidylcholine) and cholesterol (Chol) (4:1), or POPC, POPS (1-palmitoyl-2-oleoyl-sn-glycero-3-serine), and ergosterol (Erg) (16:3:1) were prepared according to the methods described by Lorenzón et al.. […] We employed a Hitachi U-2000 spectrophotometer (TSHa) (Hitachi, Tokyo, Japan) or a Fluorolog-3 FL3-122 spectrofluorometer (Horiba Jobin Yvon, Glasgow, UK) ((TSHa)2K) for analyses.

[5] = tested on: L. amazonensis amastigotes; assay: microbe, parasite or virus in culture; assay type: cell-based, Leishmania amazonensis; conditions: read-out: IC50 Amastigote
Protocol: (§2) Macrophages were sourced from the peritoneal cavity of Swiss mice using the methodology outlined by de Almeida et al.. Anti-promastigote and anti-amastigote assays of L. mexicana and L. amazonensis and their cytotoxic activity were conducted as previously described. […] Cytotoxicity for the host cells and the protozoan species was compared and expressed as the selectivity index (SI), calculated as the ratio of the CC50 for macrophages to the IC50 for the protozoan species.

[6] = tested on: L. mexicana promastigotes; assay: microbe, parasite or virus in culture; assay type: cell-based, Leishmania mexicana; conditions: ± standard deviation, SD, read-out: IC50 Promastigote
Protocol: as §1

[7] = tested on: L. mexicana amastigotes; assay: microbe, parasite or virus in culture; assay type: cell-based, Leishmania mexicana; conditions: ± standard deviation, SD
Protocol: as §2

[8] = tested on: peritoneal macrophages; assay: Cytotoxicity in peritoneal macrophages; assay type: cell-based; conditions: peritoneal macrophages of Swiss mice
Protocol: as §1

Substance: FLSGIVGMLGKLF-NH2 [TSHa]
- IC50 [1]: 20 ± 2.15 µM
- Inhibitory Activity at 20 μmol L^−1 ([2]; 20 μmol L^−1, mean ± SD of two independent replicates, SD): 94.22 ± 1.54 %
- inhibition at 20 µM ([2]; 20 μmol L^−1, mean ± SD of two independent replicates, read-out: Inhibitory Activity at 20 μmol L^−1): > 90%
- IC50 ([2]; mean ± SD of two independent replicates, SD): 9.2 ± 2.2 µM
- IC50 [3]: 8 ± 0.1 µM
- CF release ([4]; peptide 1 µmol L^−1, fluorescence): around 70%
- CF release ([4]; peptide 5 µmol L^−1, fluorescence): ~85%
- IC50 [5]: 6.8 ± 2.82 µM
- IC50 [6]: 6.3 ± 0.85 µM
- IC50 ([7]; 24 h of treatment, read-out: IC50 Amastigote 24 h of Treatment): 5 ± 0.05 µM
- IC50 ([7]; 48 h of treatment, read-out: IC50 Amastigote 48 h of Treatment): 8.1 ± 0.45 µM
- CC50 Peritoneal Macrophages ([8]; Table 1, ± standard deviation, SD): >1000 ± 0.01 µM
- CC50 Peritoneal Macrophage ([8]; Table 2): >1000 ± 1.8 µM
